Bridge positions count the residues as written; N and C are the ends. Square brackets hold non-standard residues; d marks the D form. Peptide text beside a SMILES is read from it. Pro(4R-NH2) = N[C@H]1CN[C@H](C(=O)O)C1; Gly(N-2-aminoethyl) = NCCNCC(=O)O; Cha = N[C@@H](CC1CCCCC1)C(=O)O; Gly(N(CH2)3NH2) = NCCCNCC(=O)O; Pen = CC(C)(S)[C@H](N)C(=O)O; dDab = NCC[C@@H](N)C(=O)O; Nle = CCCC[C@H](N)C(=O)O; Orn = NCCC[C@H](N)C(=O)O; Dab = NCC[C@H](N)C(=O)O
Key:
[1] = test system: human red blood cells (hRBC); test: Hemolysis of human red blood cells; assay type: cell-based; conditions: red cells of human, 1 h
Description: Lyophilized peptides were weighed on a Microbalance (Mettler MT5) and dissolved in sterile water to a final concentration of 1 mg/mL. Stock solutions were kept at +4° C., light protected. The peptides were tested for their hemolytic activity against human red blood cells (hRBC). Fresh hRBC were washed three times with phosphate buffered saline (PBS) and centrifuged for 5 min at 3000×g. Compounds (200 μg/mL) were incubated with 20% hRBC (v/v) for 1 h at 37° C. and shaking at 300 rpm. […] The samples were centrifuged, the supernatants were 8-fold diluted in PBS buffer and the optical densities (OD) were measured at 540 nm. […] Percent hemolysis was calculated as follows: (OD540peptide/OD540H2O)×100%.

[2] = test system: Klebsiella pneumoniae SSI3010; conditions: SSI3010
Description: (§1) Lyophilized peptides were weighed on a Microbalance (Mettler MT5) and dissolved in sterile water to a final concentration of 1 mg/mL. Stock solutions were kept at +4° C., light protected.
(§2) Colonies of the microorganisms were diluted in saline (0.85%, NaCl) and adjusted using a McFarland reader (bioMérieux SA, Marcy-l'Etoile, France) to 0.5 McFarland standard. Subsequently, the bacterial suspension was diluted in Mueller-Hinton II (MHII, cation adjusted) broth to give approximately 5×10^5 colony forming units (CFU/mL).
(§3) 10^6 colony forming units (CFU)/mL. Aliquots (90 μl) of inoculate were added to 10 μl of water+P-80 (Polysorbate 80, 0.002% final concentration) containing the peptide in serial two-fold dilutions at 10 fold final concentration. The following microorganisms were used to determine antibiotic selectivity of the peptides: Escherichia coli ATCC 25922, Escherichia coli MCR-1 Af 45 and Klebsiella pneumoniae SSI3010.

[3] = test system: Escherichia coli MCR-1 Af 45; conditions: MCR-1 Af 45
Description: as §1, §2, §3

[4] = test system: Escherichia coli ATCC 25922; conditions: ATCC 25922
Description: as §1, §2, §3

Structure (SMILES) | Hemolysis at 0.2 g/L [1] [%] | Klebsiella pneumoniae SSI3010 MIC [2] [µg/mL] | Escherichia coli MCR-1 Af 45 MIC [3] [µg/mL] | Escherichia coli ATCC 25922 MIC [4] [µg/mL]
CCCC[C@H](NC(=O)[C@H](CCCNC(=N)N)NC(=O)[C@H](CCN)NC(=O)[C@@H]1CSSC(C)(C)[C@H](NC(=O)[C@H](Cc2ccc(O)cc2)NC(=O)[C@@H](NC(=O)[C@@H](NC(=O)CN(CCN)C(=O)[C@@H](NC(=O)CNCCN)C(C)C)[C@@H](C)CC)[C@@H](C)CC)C(=O)N[C@@H](CC(N)=O)C(=O)N[C@@H](CCCNC(=N)N)C(=O)N[C@@H](CCN)C(=O)N[C@@H]([C@@H](C)O)C(=O)N[C@H](CCN)C(=O)N[C@@H](CCCCN)C(=O)N1)C(=O)O [Example 13, Ndab-Val-Ndab-Ile-Ile-Tyr-Pen-Asn-Arg-Dab-Thr-^DDab-Lys-Cys-Dab-Arg-Nle] (H-[Gly(N-2-aminoethyl)]V[Gly(N-2-aminoethyl)]IIY[Pen]NR[Dab]T[dDab]KC[Dab]R[Nle]-OH; disulfide 7-14) | 0 | 0.25 | 0.125 | 0.125
CCCC[C@H](NC(=O)[C@H](CCCNC(=N)N)NC(=O)[C@H](CCN)NC(=O)[C@@H]1CSSC(C)(C)[C@H](NC(=O)[C@H](Cc2ccc(O)cc2)NC(=O)[C@@H](NC(=O)[C@@H](NC(=O)CN(CCCN)C(=O)[C@@H](NC(=O)CNCCCN)C(C)C)[C@@H](C)CC)[C@@H](C)CC)C(=O)N[C@@H](CC(N)=O)C(=O)N[C@@H](CCCNC(=N)N)C(=O)N[C@@H](CCN)C(=O)N[C@@H]([C@@H](C)O)C(=O)N[C@H](CCN)C(=O)N[C@@H](CCCCN)C(=O)N1)C(=O)O [Example 14, Norn-Val-Norn-Ile-Ile-Tyr-Pen-Asn-Arg-Dab-Thr-^DDab-Lys-Cys-Dab-Arg-Nle] (H-[Gly(N(CH2)3NH2)]V[Gly(N(CH2)3NH2)]IIY[Pen]NR[Dab]T[dDab]KC[Dab]R[Nle]-OH; disulfide 7-14) | 0 | 0.25 | 0.25 | 0.25
CCCC[C@H](NC(=O)[C@H](CCCNC(=N)N)NC(=O)[C@H](CCCN)NC(=O)[C@@H]1CSSC(C)(C)[C@H](NC(=O)[C@H](Cc2ccc(O)cc2)NC(=O)[C@@H](NC(=O)[C@@H](NC(=O)CN(CCN)C(=O)[C@@H](NC(=O)CNCCN)C(C)C)[C@@H](C)CC)[C@@H](C)CC)C(=O)N[C@@H](CC(N)=O)C(=O)N[C@@H](CCCNC(=N)N)C(=O)N[C@@H](CCN)C(=O)N[C@@H]([C@@H](C)O)C(=O)N[C@H](CCN)C(=O)N[C@@H](CCCCN)C(=O)N1)C(=O)O [Example 15, Ndab-Val-Ndab-Ile-Ile-Tyr-Pen-Asn-Arg-Dab-Thr-^DDab-Lys-Cys-Orn-Arg-Nle] (H-[Gly(N-2-aminoethyl)]V[Gly(N-2-aminoethyl)]IIY[Pen]NR[Dab]T[dDab]KC[Orn]R[Nle]-OH; disulfide 7-14) | 0 | 0.25 | 0.125 | 0.125
CCCC[C@H](NC(=O)[C@H](CCCNC(=N)N)NC(=O)[C@H](CCCN)NC(=O)[C@@H]1CSSC(C)(C)[C@H](NC(=O)[C@H](Cc2ccc(O)cc2)NC(=O)[C@@H](NC(=O)[C@@H](NC(=O)CN(CCN)C(=O)[C@@H](NC(=O)CNCCN)C(C)C)[C@@H](C)CC)[C@@H](C)CC)C(=O)N[C@@H](CC(N)=O)C(=O)N[C@@H](CCCNC(=N)N)C(=O)N[C@@H](CCN)C(=O)N[C@@H]([C@@H](C)O)C(=O)N[C@H](CCN)C(=O)N[C@@H](CCCN)C(=O)N1)C(=O)O [Example 16, Ndab-Val-Ndab-Ile-Ile-Tyr-Pen-Asn-Arg-Dab-Thr-^DDab-Orn-Cys-Orn-Arg-Nle] (H-[Gly(N-2-aminoethyl)]V[Gly(N-2-aminoethyl)]IIY[Pen]NR[Dab]T[dDab][Orn]C[Orn]R[Nle]-OH; disulfide 7-14) | 0 | 0.25 | 0.125 | 0.125
CC[C@H](C)[C@H](NC(=O)[C@@H](NC(=O)[C@@H]1C[C@@H](N)CN1C(=O)[C@@H](NC(=O)[C@@H]1CCCN1)C(C)C)[C@@H](C)CC)C(=O)N[C@@H](Cc1ccc(O)cc1)C(=O)N[C@@H]1C(=O)N[C@@H](CC(N)=O)C(=O)N[C@@H](CCCNC(=N)N)C(=O)N[C@@H](CCN)C(=O)N[C@@H]([C@@H](C)O)C(=O)N[C@H](CCN)C(=O)N[C@@H](CCCCN)C(=O)N[C@H](C(=O)N[C@@H](CCC(N)=O)C(=O)N[C@@H](CCCNC(=N)N)C(=O)N[C@@H](CC2CCCCC2)C(=O)O)CSSC1(C)C [Example 17, Pro-Val-Pro((4R)NH2)-Ile-Ile-Tyr-Pen-Asn-Arg-Dab-Thr-^DDab-Lys-Cys-Gln-Arg-Cha] (HELM PEPTIDE1{P.V.[N[C@@H]1C[C@@H](C(=O)[*:2])N([*:1])C1].I.I.Y.[Pen].N.R.[Dab].T.[NCC[C@@H](N[*:1])C(=O)[*:2]].K.C.Q.R.[Cha]}$PEPTIDE1,PEPTIDE1,7:R3-14:R3$$$V2.0) | 0 | 0.25 | 0.125 | 0.125
CC[C@H](C)[C@H](NC(=O)[C@@H](NC(=O)[C@@H]1C[C@@H](N)CN1C(=O)[C@@H](NC(=O)[C@@H]1C[C@@H](N)CN1)C(C)C)[C@@H](C)CC)C(=O)N[C@@H](Cc1ccc(O)cc1)C(=O)N[C@@H]1C(=O)N[C@@H](CC(N)=O)C(=O)N[C@@H](CCCNC(=N)N)C(=O)N[C@@H](CCN)C(=O)N[C@@H]([C@@H](C)O)C(=O)N[C@H](CCN)C(=O)N[C@@H](CCCCN)C(=O)N[C@H](C(=O)N[C@@H](CCC(N)=O)C(=O)N[C@@H](CCCNC(=N)N)C(=O)N[C@@H](CC2CCCCC2)C(=O)O)CSSC1(C)C [Example 18, Pro((4R)NH2)-Val-Pro((4R)NH2)-Ile-Ile-Tyr-Pen-Asn-Arg-Dab-Thr-^DDab-Lys-Cys-Gln-Arg-Cha] (H-[Pro(4R-NH2)]V[Pro(4R-NH2)]IIY[Pen]NR[Dab]T[dDab]KCQR[Cha]-OH; disulfide 7-14) | 0 | 0.25 | 0.125 | 0.25
CC[C@H](C)[C@H](NC(=O)[C@@H](NC(=O)[C@@H]1C[C@@H](N)CN1C(=O)[C@@H](NC(=O)[C@@H]1CCCN1)C(C)C)[C@@H](C)CC)C(=O)N[C@@H](Cc1ccc(O)cc1)C(=O)N[C@@H]1C(=O)N[C@@H](CC(N)=O)C(=O)N[C@@H](CCCNC(=N)N)C(=O)N[C@@H](CCN)C(=O)N[C@@H]([C@@H](C)O)C(=O)N[C@H](CCN)C(=O)N[C@@H](CCCCN)C(=O)N[C@H](C(=O)N[C@@H](CCN)C(=O)N[C@@H](CCCNC(=N)N)C(=O)N[C@@H](CC2CCCCC2)C(=O)O)CSSC1(C)C [Example 19, Pro-Val-Pro((4R)NH2)-Ile-Ile-Tyr-Pen-Asn-Arg-Dab-Thr-^DDab-Lys-Cys-Dab-Arg-Cha] (HELM PEPTIDE1{P.V.[N[C@@H]1C[C@@H](C(=O)[*:2])N([*:1])C1].I.I.Y.[Pen].N.R.[Dab].T.[NCC[C@@H](N[*:1])C(=O)[*:2]].K.C.[Dab].R.[Cha]}$PEPTIDE1,PEPTIDE1,7:R3-14:R3$$$V2.0) | 0 | 0.0625 | ≤0.03125 | 0.0625

Source: patent US20230295234A1, “ANTIMICROBIAL PEPTIDOMIMETICS” (SPEXIS AG, priority 2020, published 2023)
